SMILES strings stand for the structures.

What all share (type): cell-based
A short description of data set [1]: Off-target cytotoxicity, galactose-adapted HepG2 cells (Cell Titer Glo, 5 days). The following applies: human, galactose-adapted HepG2, five days incubation, intracellular ATP, read-out: CC50 GALHEPG2 CTG 50. From the text: (§1) To assess potential off-target toxicity of certain compounds disclosed herein, the in vitro cytotoxicity of those compounds was profiled using a panel of 5 cell lines with various tissue origins. Compound cytotoxicity was examined in hepatoma-derived Huh-7 and HepG2 cells, prostate carcinoma-derived PC-3 cells, lymphoma derived MT-4 cells and a normal diploid lung cell line MRC-5. HepG2 and PC-3 cells used were adapted to grow in glucose-free galactose-containing medium. These cells have a relatively higher sensitivity to inhibitors of mitochondrial oxidative phosphorylation compared to the same cells maintained in standard glucose-containing culture medium (Marroquin et al., Toxicol. Sci. 2007; 97 (2):539-47). Cell viability was determined by measuring intracellular ATP levels following five days of continuous incubation with test compounds.
(§2) The human hepatoma Huh-7 cell line was obtained from ReBLikon GmbH (Mainz, Germany) {20879}. The MT-4 cell line (HTLV-1 transformed, human T lymphoblastoid cells) was obtained from the NIH AIDS Reagent program (Bathesda, Md.). The human hepatoblastoma cell line HepG2, human prostate carcinoma cell line PC-3, and normal fetal lung derived MRC-5 cells were obtained from the American Type Culture Collection (ATCC, Manassas, Va.).
(§3) Huh-7 cells were maintained in Dulbecco's Modified Eagle Medium (DMEM) supplemented with 10% fetal bovine serum (FBS, Hyclone, Logan, Utah), 1% non-essential amino acids (Gibco, Carlsbad, Calif.). PC-3 and HepG2 cells were adapted to grow in 0.2% galactose-containing, glucose-free Dulbecco's Modified Eagle Medium (DMEM) supplemented with 10% fetal bovine serum (FBS, Hyclone, Logan, Utah), 1% non-essential amino acids (Gibco, Carlsbad, Calif.), 1% Pyruvate (Cellgro), 1% Glutamax (Invitrogen, Carlsbad, Calif.). Galactose-adapted cells were maintained in the same culture medium. MRC-5 cells were maintained in Eagle's Minimum Essential Medium (EMEM) supplemented with 10% fetal bovine serum (FBS, Hyclone, Logan, Utah). MT-4 cells were maintained in RPMI-1640 supplemented with 10% fetal bovine serum (FBS, Hyclone, Logan, Utah). All cell culture media were also supplemented with 100 Units/mL penicillin, 100 μg/mL streptomycin (Gibco).
(§4) Using a Biotek uFlow Workstation (Biotek, Winooski, Vt.), 1500 HepG2, 1500 PC-3, 500 Huh7 or 1500 MRC-5 cells in 90 μL of culture media were dispensed into each well of black polystyrene tissue culture-treated 384-well plates. Plated cells were incubated for 24 hours in an incubator at 37° C., 5% CO2 and 90% humidity. Compound serial dilutions were performed in 100% DMSO in 384-well polypropylene (high recovery) plates on a Biomek FX Workstation (Beckman Coulter, Fullerton, Calif.). After 3-fold serial dilutions, 0.4 μL of compounds were transferred into 384-well plates containing cells using a Velocity 11 system equipped with a Bravo 384-well pipettor. The DMSO concentration in the final assay plates was 0.44% (v/v). Cells were incubated with compound(s) for five days at 37° C. Puromycin (44 μM final concentration) and DMSO (0.44%, v/v) were used as a positive and negative controls, respectively
(§5) At the end of the incubation period the cytotoxicity assay was performed as follows: Media from 384-well cell culture plates were aspirated with a Biotek EL405 plate-washer (Biotek) and cells were washed with 100 μL PBS once. Twenty microliters of Cell Titer Glo (Promega, Madison, Wis.) was added to each well of the plates with a Biotek uFlow liquid dispenser. Plates were incubated for 15 minutes at room temperature before luminescence was measured with a Perkin Elmer Envision Plate Reader (Perkin Elmer, Waltham, Mass.).
(§6) CC50 values were defined as the compound concentration that caused a 50% decrease in luminescence signal, and were calculated by non-linear regression using Pipeline Pilot software by applying a four parameter fit equation (Accelrys, San Diego, Calif.). Individual CC50 values are listed as μM concentrations.
(In general: ATP-based viability assays read luminescence as a measure of living cells.)

In another data set the test system is MRC-5 cells. Description: Off-target cytotoxicity, MRC-5 cells (Cell Titer Glo, 5 days). The following applies: MRC-5, five days incubation, intracellular ATP; read-out: CC50 MHCS CTG 50.
Source text: as §1, §2, §3, §4, §5, §6

Data set [2] can be described thus: Off-target cytotoxicity, MT-4 cells (Cell Titer Glo, 5 days). The following applies: human, MT-4, five days incubation, intracellular ATP, read-out: CC50 (MT4).
Source text: as §1, with “These cells have a relatively higher sensitivity to inhibitors of mitochondrial oxidative phosphorylation compared to the same cells maintained in standard glucose-containing culture medium (Marroquin et al., Toxicol. Sci. 2007; 97 (2):539-47).” left out
(§7) The MT-4 cell line (HTLV-1 transformed, human T lymphoblastoid cells) was obtained from the NIH AIDS Reagent program (Bathesda, Md.). The human hepatoblastoma cell line HepG2, human prostate carcinoma cell line PC-3, and normal fetal lung derived MRC-5 cells were obtained from the American Type Culture Collection (ATCC, Manassas, Va.).
as §3, with “MT-4 cells were maintained in RPMI-1640 supplemented with 10% fetal bovine serum (FBS, Hyclone, Logan, Utah).” left out
For the MT-4 cytotoxicity assay, 0.4 μL of serially diluted compounds were added to 40 μl of cell maintenance media in 384-well black, solid bottom plate using a Biomek FX workstation (Beckman Coulter). Two thousand cells in 35 μL were added to each well using a Biotek uFlow Workstation (Biotek). […] Assay plates were incubated for five days at 37° C. in an incubator set at 5% CO2 and 90% humidity. After five days, 22 μL of Cell Titer Glo reagent (Promega) was added to the assay plates with a Biotek uFlow Workstation. Plates were subsequently placed on a Perkin Elmer Envision Plate Reader for five minutes before the luminescence signal was read.

The next data set relates to Huh-7 cells. Description: Off-target cytotoxicity, Huh-7 cells (Cell Titer Glo, 5 days). Particulars: Huh-7, five days incubation, intracellular ATP; read-out: CC50 HEH7 CTG 50.
Source text: as §1, §2, §3, §4, §5, §6

Data set [3] is described as follows: Off-target cytotoxicity, galactose-adapted PC-3 cells (Cell Titer Glo, 5 days). The following applies: human, galactose-adapted PC-3, five days incubation, intracellular ATP, read-out: CC50 GALFC3 CTG 50.
Source text: as §1, with “These cells have a relatively higher sensitivity to inhibitors of mitochondrial oxidative phosphorylation compared to the same cells maintained in standard glucose-containing culture medium (Marroquin et al., Toxicol. Sci. 2007; 97 (2):539-47).” left out
as §7
as §3, with “MT-4 cells were maintained in RPMI-1640 supplemented with 10% fetal bovine serum (FBS, Hyclone, Logan, Utah).” left out
as §4, with “C.” for “C. Puromycin (44 μM final concentration) and DMSO (0.44%, v/v) were used as a positive and negative controls, respectively”
as §5

A further data set has as its target T1, human TLR7 (Homo sapiens, UniProt Q9NYK1).
T1 construct: host or cells: HEK-Blue human TLR7 cells (HEK293-derived reporter line)
T1 sequence (Q9NYK1 27-1049): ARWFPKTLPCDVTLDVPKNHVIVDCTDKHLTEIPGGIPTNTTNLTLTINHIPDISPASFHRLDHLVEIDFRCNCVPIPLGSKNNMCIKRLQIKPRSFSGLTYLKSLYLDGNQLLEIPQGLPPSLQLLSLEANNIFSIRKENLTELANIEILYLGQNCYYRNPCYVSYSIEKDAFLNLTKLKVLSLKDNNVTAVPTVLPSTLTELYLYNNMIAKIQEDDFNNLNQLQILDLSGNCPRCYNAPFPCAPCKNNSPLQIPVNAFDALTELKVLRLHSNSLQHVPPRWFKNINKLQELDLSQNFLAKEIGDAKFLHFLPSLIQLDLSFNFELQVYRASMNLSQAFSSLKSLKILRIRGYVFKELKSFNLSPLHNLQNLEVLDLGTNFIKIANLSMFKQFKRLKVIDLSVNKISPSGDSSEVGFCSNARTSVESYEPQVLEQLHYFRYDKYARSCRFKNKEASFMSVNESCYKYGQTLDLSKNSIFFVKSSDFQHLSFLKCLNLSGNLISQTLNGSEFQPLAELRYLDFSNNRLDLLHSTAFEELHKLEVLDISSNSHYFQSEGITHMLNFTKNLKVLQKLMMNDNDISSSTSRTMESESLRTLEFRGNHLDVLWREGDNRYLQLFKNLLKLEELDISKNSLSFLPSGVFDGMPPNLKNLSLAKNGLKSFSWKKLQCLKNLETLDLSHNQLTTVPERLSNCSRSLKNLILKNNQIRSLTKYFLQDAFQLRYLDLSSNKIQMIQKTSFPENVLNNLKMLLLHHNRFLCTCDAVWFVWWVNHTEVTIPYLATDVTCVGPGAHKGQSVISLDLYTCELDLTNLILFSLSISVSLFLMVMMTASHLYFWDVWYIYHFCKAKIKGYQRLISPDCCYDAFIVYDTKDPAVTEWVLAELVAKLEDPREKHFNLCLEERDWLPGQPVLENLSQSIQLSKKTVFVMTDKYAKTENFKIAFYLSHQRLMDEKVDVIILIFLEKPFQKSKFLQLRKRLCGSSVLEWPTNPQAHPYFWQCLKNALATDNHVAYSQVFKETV
Put plainly: HEK-Blue human TLR7 cell SEAP reporter assay (NF-κB activation). The following applies: HEK-Blue human TLR7 cells, stimulation for 20 hours, Quanti Blue read at 640 nm. From the text: For TLR8 and TLR7 activity testing, HEK-Blue human TLR8 or TLR7 cells (Invivogen, San Diego, Calif., USA) are used, respectively. These cells are designed for studying the stimulation of human TLR8 or TLR7 by monitoring the activation of NF-κB. A SEAP (secreted embryonic alkaline phosphatase) reporter gene is placed under the control of the IFN-b minimal promoter fused to five NF-κB and AP-1-binding sites. Therefore the reporter expression is regulated by the NF-κB promoter upon stimulation of human TLR8 or TLR7 for 20 hours. The cell culture supernatant SEAP reporter activity was determined using Quanti Blue kit (Invivogen, San Diego, Ca, USA) at a wavelength of 640 nm, a detection medium that turns purple/blue in the presence of alkaline phosphatase. EC50 values were determined using Activity Base analysis (ID Business Solution, Limited).

One may read the CC50 as the concentration that lowers cell viability or growth by half. In the case of `CCCC[C@@](C)(Nc1nc(N)nc2cccnc12)C(C)O` (single isomer, unassigned) [Compound 97], the 50% cytotoxic concentration (CC50) at 5 days in data set [1] is 33 µM; in data set [2], 30 µM; in data set [3] it was 27.5 µM. Besides, the CC50 in the data set on MRC-5 cells and with Huh-7 cells was 44.4 µM in each case.
`CCCC[C@H](CNC(C)=O)Nc1nc(N)nc2cccnc12` [Compound 51, (R)—N-(2-((2-aminopyrido[3,2-d]pyrimidin-4-yl)amino)hexyl)acetamide]: the figures for the half-maximal cytotoxic concentration (CC50) at 5 days in data set [1], in data set [2] and in data set [3] were at least 44.4 µM, 57.1 µM and 37.2 µM, respectively. Besides, the CC50 in the data set with MRC-5 cells and with Huh-7 cells was 44.4 µM each time.
Consider `CCCC[C@](C)(CNC(C)=O)Nc1nc(N)nc2cccnc12` [Compound 61], for which the CC50 at 5 days in data set [1] is at least 44.4 µM; in data set [2], 212 µM; in data set [3], 44.4 µM. Besides, the CC50 in the data set with MRC-5 cells and in the data set on Huh-7 cells was 44.4 µM each time.
The term EC50 denotes the concentration that produces a half-maximal response. A lower EC50 goes with higher potency in that assay. Consider `CCCN(CCC)C(=O)C1=Cc2ccc(C3=NCc4ccccc4N3)cc2N=C(N)C1` [Example 1, 2-Amino-8-(1,4-dihydroquinazolin-2-yl)-N,N-dipropyl-3H-1-benzazepine-4-carboxamide], for which the EC50 on human TLR7 is over 100 µM.
Regarding `CCCN(CCC)C(=O)C1=Cc2ccc(C3=NCc4ccncc4N3)cc2N=C(N)C1` [Example 2, 2-Amino-8-(1,4-dihydropyrido[3,4-d]pyrimidin-2-yl)-N,N-dipropyl-3H-1-benzazepine-4-carboxamide], on human TLR7, the concentration giving a half-maximal response (EC50) was over 100 µM.
For the compound `CCCN(CC1CC1)C(=O)C1=Cc2ccc(C3=NCc4ccccc4N3)cc2N=C(N)C1` [Example 3, 2-Amino-N-(cyclopropylmethyl)-8-(1,4-dihydroquinazolin-2-yl)-N-propyl-3H-1-benzazepine-4-carboxamide], the EC50 at human TLR7 is over 100 µM.
With `CCCN(CC(C)C)C(=O)C1=Cc2ccc(C3=NCc4ccccc4N3)cc2N=C(N)C1` [Example 4, 2-Amino-8-(1,4-dihydroquinazolin-2-yl)-N-isobutyl-N-propyl-3H-1-benzazepine-4-carboxamide], at human TLR7, the EC50 is over 100 µM.
With `CCCN(CCC)C(=O)C1=Cc2ccc(C3=NCc4c(Cl)cccc4N3)cc2N=C(N)C1` [Example 5, 2-Amino-8-(5-chloro-1,4-dihydroquinazolin-2-yl)-N,N-dipropyl-3H-1-benzazepine-4-carboxamide], the EC50 at human TLR7 was over 100 µM.
At human TLR7, `CCCN(CCC)C(=O)C1=Cc2ccc(C3=NCc4ccc(Cl)cc4N3)cc2N=C(N)C1` [Example 6, 2-Amino-8-(7-chloro-1,4-dihydroquinazolin-2-yl)-N,N-dipropyl-3H-1-benzazepine-4-carboxamide] had an EC50 of over 100 µM.
